Experiments:
[1] = molecular target: T1, c-Myc/Max/Ebox DNA (Homo sapiens, UniProt P01106); experiment: c-Myc/Max/Ebox DNA AlphaScreen Assay; type: binding; settings: free c-Myc 20 nM, his6-Max 5 nM, biotinylated Ebox oligo 10 nM, 2 hour incubation
T1 construct: his6 (cleaved yes)
Procedure: Compounds of the invention were assayed for c-Myc/Max/EBox activity as described in the following protocol. Human his6-c-Myc and his6-Max were used with biotinylated DNA containing a single Ebox sequence (biotin[…]) purchased from MWG Operon. Free c-Myc was generated from his6-c-Myc through thrombin cleavage of the his6 tag. For 384-well plate assays, 10 μL of a 2× solution of free c-Myc (20 nM final), Ni^2+ coated Acceptor Beads (25 μg/ml final), and biotinylated Ebox oligo (10 nM final) were added to 384-well plates with a Biotek EL406 liquid handler. 50 nL of compounds from stock plates were added by pin transfer using a Janus Workstation (PerkinElmer), allowing the compounds to interact with c-Myc prior to c-Myc binding with Max. In the current assay, DMSO was not allowed to exceed 2% v/v of the assay. 10 μl of 2× master mix containing streptavidin-coated donor beads (25 μg/ml final) and his6-Max (5 nM) were added. AlphaScreen measurements were performed on an Envision plate reader (PerkinElmer) utilizing the manufacturer's protocol.
Both master mixes were made in room temperature assay buffer (50 mM HEPES, 150 mM NaCl, 0.2% w/v BSA, 0.02% w/v Tween20, 40 μg/ml glycogen, 500 μM DTT, pH 8.0, wherein both DTT and glycogen were added fresh). Alpha beads were added to respective master solutions. All subsequent steps were performed in low light conditions. Solution 1: 2× solution of components with final concentrations of c-Myc Ni-coated Acceptor Beads (25 μg/ml), and biotinylated Ebox oligo (10 nM). Solution 2: 2× solution of streptavidin-coated donor beads (25 μg/ml final) and his6-Max […]. Solution 1 was added to 384-well plate (AlphaPlate-384, PerkinElmer) with Biotek EL406 liquid handler and the plates were centrifuged very briefly. 50 nL of compounds from stock plates were added by pin transfer using a Janus Workstation. Solution 2 (10 μL) was added with the liquid handler. Plates were sealed with foil to block light exposure and prevent evaporation. Plates were very briefly centrifuged followed by 2 hour incubation. AlphaScreen measurements were performed on an Envision 2104 utilizing the manufacturer's protocol. Excitation was at 680 nm for donor bead release of singlet oxygen and emission was read with a bandpass filter from 520-620 nm. Glycogen: Roche Diagnostics #10901393001. Plate 1536: Perkin Elmer, 6004350. Plate 384: Perkin Elmer, 6005350. Nickel-His Alpha Beads: 6760619R. The data from this assay are summarized in Table 3 below (Myc/Max/DNA Activity).

[2] = system: human small lung cancer cell line H2171; experiment: Cell Viability Assay (ATPlite); type: cell-based; settings: NCI-H2171, 72 h, H2171 cells, incubated for three days, ATPlite readout
Procedure: Compounds of the invention were assayed for cell viability using the human small lung cancer cell line H2171 as described in the following protocol. Cells were counted and adjusted to 20,000 cells/mL. Using a Biotek EL406, 50 μL of cells in media were distributed into 384 well white plates from Thermo. Immediately after plating, compound in DMSO was distributed to plates. Compounds were added to plates using a 50 nL 384 well pin transfer manifold on a Janus workstation. Stocks were arrayed in 10 point dose response in DMSO stock in 384 well Greiner compound plates. After the addition of compounds, plates were incubated for three days in a 37° C. incubator. Cell viability was read out using ATPlite from Perkin Elmer. Lyophilized powder was resuspended in lysis buffer and diluted 1:2 with deionized water. 25 μL of this solution was added to each well using the Biotek liquid handler. Plates were incubated for 15 minutes at room temperature before signal was read on an Envision Plate Reader. The data from this assay are summarized in Table 3 below (H2171 activity).

T1 sequence (P01106 whole entry): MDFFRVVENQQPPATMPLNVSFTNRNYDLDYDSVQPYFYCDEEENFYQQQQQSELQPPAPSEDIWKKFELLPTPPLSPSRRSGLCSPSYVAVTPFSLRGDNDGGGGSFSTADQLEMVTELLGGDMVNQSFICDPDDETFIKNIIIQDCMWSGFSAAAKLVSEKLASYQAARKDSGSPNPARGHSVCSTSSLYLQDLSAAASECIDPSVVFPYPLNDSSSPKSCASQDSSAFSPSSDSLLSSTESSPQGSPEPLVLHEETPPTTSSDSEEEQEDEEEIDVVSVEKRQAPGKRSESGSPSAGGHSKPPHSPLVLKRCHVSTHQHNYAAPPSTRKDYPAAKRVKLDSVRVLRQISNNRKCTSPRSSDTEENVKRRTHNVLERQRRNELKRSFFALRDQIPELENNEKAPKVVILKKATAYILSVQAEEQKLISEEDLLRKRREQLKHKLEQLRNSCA

| IC50 [1] | IC50 [2] | SMILES |
| --- | --- | --- |
| < 500 nM | < 500 nM | CCN1C(C)c2sc(NC(C)=O)c(-c3nc4c(C(F)F)nccc4s3)c2C[C@H]1C (stereo in doubt) [Compound 235, N-((5R,7R)-3-(4-(difluoromethyl)thiazolo[4,5-c]pyridin-2-yl)-6-ethyl-5,7-dimethyl-4,5,6,7-tetrahydrothieno[2,3-c]pyridin-2-yl)acetamide] |
| < 500 nM | 500 to 5000 nM | CC(=O)Nc1sc2c(c1-c1nc3cnccc3s1)CCNC2 [Compound 100, N-(3-(Thiazolo[4,5-c]pyridin-2-yl)-4,5,6,7-tetrahydrothieno[2,3-c]pyridin-2-yl)acetamide] |
| 500 to 5000 nM | < 500 nM | CC(=O)Nc1sc2c(c1-c1nc3cccnc3s1)CCNC2 [Compound 101, N-(3-(thiazolo[5,4-b]pyridin-2-yl)-4,5,6,7-tetrahydrothieno[2,3-c]pyridin-2-yl)acetamide] |
| < 500 nM | < 500 nM | CCC(C)NCCC(=O)Nc1sc2c(c1-c1nc3cnccc3s1)CCNC2 (stereo not shown) [Compound 103, 3-(sec-butylamino)-N-(3-(thiazolo[4,5-c]pyridin-2-yl)-4,5,6,7-tetrahydrothieno[2,3-c]pyridin-2-yl)propanamide] |
| < 500 nM |  | O=C(CCN[C@@H]1C2CCC1NC2)Nc1sc2c(c1-c1nc3cnccc3s1)CCNC2 (stereo partly shown) [Compound 173] |
| < 500 nM |  | O=C(CCNCC12CC(CN1)C2)Nc1sc2c(c1-c1nc3cnccc3s1)CCNC2 [Compound 174] |
| < 500 nM |  | O=C(CCNCC1CCCC1)Nc1sc2c(c1-c1nc3cnccc3s1)CCNC2 [Compound 175] |
| < 500 nM |  | O=C(CCN1CCc2[nH]ncc2C1)Nc1sc2c(c1-c1nc3cnccc3s1)CCNC2 [Compound 178] |
| 500 to 5000 nM |  | CC(C)c1nc(CNCCC(=O)Nc2sc3c(c2-c2nc4cnccc4s2)CCNC3)no1 [Compound 179] |
| < 500 nM |  | Cc1nc(CNCCC(=O)Nc2sc3c(c2-c2nc4cnccc4s2)CCNC3)no1 [Compound 180] |
| < 500 nM |  | O=C(CCNCc1ncon1)Nc1sc2c(c1-c1nc3cnccc3s1)CCNC2 [Compound 181] |
| 500 to 5000 nM |  | Cc1nc(CN(C)CCC(=O)Nc2sc3c(c2-c2nc4cnccc4s2)CCNC3)no1 [Compound 182] |
| < 500 nM |  | Cc1ccc(CNCCC(=O)Nc2sc3c(c2-c2nc4cnccc4s2)CCNC3)s1 [Compound 185] |
| 500 to 5000 nM |  | Cc1ncc(CNCCC(=O)Nc2sc3c(c2-c2nc4cnccc4s2)CCNC3)s1 [Compound 186] |
| < 500 nM |  | N[C@@H]1[C@H]2CN(CCC(=O)Nc3sc4c(c3-c3nc5cnccc5s3)CCNC4)C[C@@H]12 [Compound 187] |
| < 500 nM |  | O=C(CCNCC1CCNC1)Nc1sc2c(c1-c1nc3cnccc3s1)CCNC2 (stereo not shown) [Compound 188] |
| < 500 nM |  | O=C(CCNCC1CCOCC1)Nc1sc2c(c1-c1nc3cnccc3s1)CCNC2 [Compound 189] |
| 500 to 5000 nM |  | Cc1cc(CNCCC(=O)Nc2sc3c(c2-c2nc4cnccc4s2)CCNC3)no1 [Compound 191] |
| < 500 nM |  | C[C@@H](NCCC(=O)Nc1sc2c(c1-c1nc3cnccc3s1)CCNC2)c1cnc2ccccn12 [Compound 192] |
| < 500 nM |  | O=C(CCNCCN1CCNCC1)Nc1sc2c(c1-c1nc3cnccc3s1)CCNC2 [Compound 193] |
| 500 to 5000 nM |  | O=C(CCN1CC(F)(F)C1)Nc1sc2c(c1-c1nc3cnccc3s1)CCNC2 [Compound 194] |
| < 500 nM |  | NC1CC(NCCC(=O)Nc2sc3c(c2-c2nc4cnccc4s2)CCNC3)C1 (stereo not shown) [Compound 195] |
| 500 to 5000 nM |  | CC1(C#N)CN(CCC(=O)Nc2sc3c(c2-c2nc4cnccc4s2)CCNC3)C1 [Compound 196] |

| IC50 [1] | IC50 [2] | SMILES |
| --- | --- | --- |
| 5000 to 25000 nM |  | CC(NCCC(=O)Nc1sc2c(c1-c1nc3cnccc3s1)CCNC2)c1nc2ccccc2[nH]1 (stereo not shown) [Compound 197] |
| 500 to 5000 nM |  | O=C(CCN1CCn2nccc2C1)Nc1sc2c(c1-c1nc3cnccc3s1)CCNC2 [Compound 198] |
| 500 to 5000 nM |  | Cc1cccc2c1CCN(CCC(=O)Nc1sc3c(c1-c1nc4cnccc4s1)CCNC3)C2 [Compound 199] |
| < 500 nM |  | O=C(CCNCc1[nH]nc2c1CNC2)Nc1sc2c(c1-c1nc3cnccc3s1)CCNC2 [Compound 200] |
| < 500 nM |  | CC(NCCC(=O)Nc1sc2c(c1-c1nc3cnccc3s1)CCNC2)c1ncc[nH]1 (stereo not shown) [Compound 201] |
| < 500 nM |  | NC(=O)C1(CNCCC(=O)Nc2sc3c(c2-c2nc4cnccc4s2)CCNC3)CCOCC1 [Compound 202] |
| < 500 nM |  | O=C(CCN[C@H]1CC[C@@H](O)C1)Nc1sc2c(c1-c1nc3cnccc3s1)CCNC2 [Compound 204] |
| 5000 to 25000 nM |  | CN(CCC(=O)Nc1sc2c(c1-c1nc3cnccc3s1)CCNC2)Cc1nc2ccccc2s1 [Compound 205] |
| < 500 nM |  | O=C(CCNC[C@H]1CC2(CCNCC2)CO1)Nc1sc2c(c1-c1nc3cnccc3s1)CCNC2 [Compound 207] |
| < 500 nM |  | O=C(CCN1CCC2OCCC2C1)Nc1sc2c(c1-c1nc3cnccc3s1)CCNC2 (stereo not shown) [Compound 208] |
| 500 to 5000 nM |  | O=C(CCNCc1noc2c1CNCC2)Nc1sc2c(c1-c1nc3cnccc3s1)CCNC2 [Compound 209] |
| < 500 nM |  | O=C(CCNCC1(O)CC1)Nc1sc2c(c1-c1nc3cnccc3s1)CCNC2 [Compound 210] |
| < 500 nM |  | O=C(CCN[C@H]1[C@@H]2CNC[C@@H]21)Nc1sc2c(c1-c1nc3cnccc3s1)CCNC2 [Compound 211] |
| 5000 to 25000 nM |  | O=C(CCNCc1cnc2ccccn12)Nc1sc2c(c1-c1nc3cnccc3s1)CCNC2 [Compound 212] |
| < 500 nM |  | O=C(CCN1CCC2COCC2C1)Nc1sc2c(c1-c1nc3cnccc3s1)CCNC2 (stereo not shown) [Compound 213] |
| < 500 nM |  | CN(CCC(=O)Nc1sc2c(c1-c1nc3cnccc3s1)CCNC2)Cc1ccc2[nH]ccc2c1 [Compound 214] |
| < 500 nM |  | O=C(CCNCc1ncc[nH]1)Nc1sc2c(c1-c1nc3cnccc3s1)CCNC2 [Compound 215] |
| < 500 nM |  | O=C(CCNC1CC1)Nc1sc2c(c1-c1nc3cnccc3s1)CCNC2 [Compound 221, 3-(cyclopropylamino)-N-(3-(thiazolo[4,5-c]pyridin-2-yl)-4,5,6,7-tetrahydrothieno[2,3-c]pyridin-2-yl)propanamide] |
| < 500 nM |  | O=C(CCNC1CCC1)Nc1sc2c(c1-c1nc3cnccc3s1)CCNC2 [Compound 222, 3-(cyclobutylamino)-N-(3-(thiazolo[4,5-c]pyridin-2-yl)-4,5,6,7-tetrahydrothieno[2,3-c]pyridin-2-yl)propanamide] |
| 5000 to 25000 nM |  | CCN1CCc2c(sc(NC(C)=O)c2-c2nc3cnccc3s2)[C@H]1C [Compound 229, (R)—N-(6-ethyl-7-methyl-3-(thiazolo[4,5-c]pyridin-2-yl)-4,5,6,7-tetrahydrothieno[2,3-c]pyridin-2-yl)acetamide] |
|  | < 500 nM | CC(=O)Nc1sc2c(c1-c1nc3cnccc3s1)C[C@H](C)N[C@@H]2C [Compound 236] |
| > 25000 nM |  | COCCNCCC(=O)Nc1sc2c(c1-c1nc3cncnc3s1)CCNC2 [Compound 252] |

| SMILES | IC50 [1] | IC50 [2] |
| --- | --- | --- |
| CC(=O)Nc1sc2c(c1-c1nc3cnccc3s1)C[C@@H](C)N[C@@H]2C (single isomer, unassigned) [Compound 110] | < 500 nM | < 500 nM |
| CC(=O)Nc1sc2c(c1-c1nc3cnccc3s1)C[C@H](C)N[C@H]2C (single isomer, unassigned) [Compound 111] | < 500 nM | < 500 nM |
| CCN1[C@H](C)c2sc(NC(C)=O)c(-c3nc4cnccc4s3)c2C[C@@H]1C [Compound 253] | < 500 nM |  |
| CCN1[C@H](C)Cc2c(sc(NC(C)=O)c2-c2nc3cnccc3s2)[C@@H]1C [Compound 254] | > 25000 nM |  |

— patent US11753418B2, “Compounds for the modulation of Myc activity” (Syros Pharmaceuticals, Inc., priority 2015, dated 2023)
